Holding throughout (assay): NCI tumour cell line growth inhibition, 48 h
Assay [1] relates to MDA-MB-435.
Assay [2] has as its system A498 renal.
For assay [3], the system named is MOLT-4 leukemia.
In assay [4] the test system is NCI-H522 lung.
The test system of assay [5] is CAKI-1 renal.
In assay [6] the test system is SK-MEL-28 melanoma.
Assay [7] has as its system SNB-19 CNS.
Assay [8] relates to UACC-257 melanoma.
Assay [9] concerns NCI-H23 lung.
Assay [10] has as its system OVCAR-3 ovarian.

SMILES strings stand for the structures. Several values for one entry are separate records, joined by “and”; a condition that tells them apart may be missing. Equal values may be shown once.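 Compound exposure: 48 hours, 5 concentrations, 96-well plates. Abbreviation: GI50, concentration required for 50% inhibition of growth. Definition used: TGI = concentration required for complete inhibition of growth.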

Regarding `CCCCCCCCCCCCOC1C(CNC(=O)C2OC3OC(C)(C)OC3C2NC(=O)Nc2ccc(CC(=O)NC(Cc3ccccc3)C(=O)O)cc2)OC2OC(C)(C)OC21` (stereo unspecified), the GI50 in assay [1], in assay [2], in assay [3], in assay [4], in assay [5] and in assay [6] was > 25 µM each time. The GI50 in [7], in [8], in assay [9] and in [10] was > 25 µM throughout. The TGI in assay [1], in assay [2], in assay [3], in assay [4], in [5] and in assay [6] was > 25 µM in each case. The TGI in assay [7], in assay [8], in assay [9] and in assay [10] was > 25 µM throughout.

On to `NC(N)=N/N=C/c1ccc(-c2ccc(-c3cc(Cl)cc(Cl)c3)s2)cc1`, for which the GI50 in assay [1] was 1.65 µM; in assay [2] it was 1.25 µM; in assay [3] it was 1.72 µM; in assay [4], 1.85 µM; in assay [5], 1.58 µM; in assay [6], 1.8 µM. Also, the GI50 in assay [7] is 1.85 µM; in assay [8], 1.94 µM; in [9] it was 1.9 µM; in assay [10] it was 1.71 µM. In addition, the TGI in assay [1] was determined as 3.28 µM; in assay [2], 2.55 µM; in [3], 4.3 µM; in assay [4] it was 4.45 µM; in [5] it was 3.31 µM; in [6] it was 3.51 µM. Also, the TGI amounted to 3.73 µM in assay [7], 4.22 µM in assay [8], 3.88 µM in [9] and 3.27 µM in assay [10].

`CN(Cc1cc(Cl)cc(Cl)c1O)Cc1c(O)ccc2ccccc12`: the TGI in [1] worked out at 41.4 µM; in [2], 31 µM; in assay [3], 58.3 µM; in [4], 29.6 µM; in assay [5], 33.8 µM; in [6] it was 37.3 µM. In addition, the TGI in [7] came out at 37.9 µM; in [8] it was 34.6 µM; in assay [9], 33.5 µM; in assay [10], 35.7 µM.

As to `COc1ccc(-n2ccnc2-c2cc(OC)c(OC)c(OC)c2)cc1`, the GI50 was 0.303 µM in assay [1]; 0.798 µM in assay [2]; 5.75 µM in assay [3]; 2.92 µM in [4]; 1.28 µM in assay [5]; 2.99 µM in assay [6]. In addition, the GI50 is 4.64 µM in [7], 6.64 µM in assay [8], 3.3 µM in assay [9] and 1.58 µM in [10]. Besides, the TGI in [1] was 1.32 µM; in assay [2], 5.14 µM; in assay [3], > 100 µM; in assay [4], 8.12 µM; in [5] it was 7.69 µM; in assay [6], > 100 µM. For the same molecule, the TGI in assay [7] is > 100 µM; in assay [8] it was > 100 µM; in [9], 65 µM; in [10], 5.03 µM.

Turning to `O=C(Nc1ccccc1)c1cc(S(=O)(=O)Nc2nc3ccccc3o2)c(SCc2ccccc2)cc1Cl`, the GI50 in assay [1] is 19 µM; in assay [2], 15.2 µM; in [3], 13.3 µM; in [4], 25.2 µM; in assay [5], 19.3 µM; in assay [6], 22.7 µM. Moreover, the GI50 is 37 µM in assay [7], 19.6 µM in [8], 21.2 µM in assay [9] and 19.9 µM in assay [10]. Also, the TGI in assay [1] amounted to 37.7 µM; in assay [2] it was 34.6 µM; in assay [3] it was 37.8 µM; in assay [4], 65 µM; in [5], 35.5 µM; in assay [6], 51.9 µM. The TGI in assay [7] was > 100 µM; in assay [8] it was 38.6 µM; in assay [9] it was 44.9 µM; in assay [10], 40 µM.

`CC(=O)N1N=C2/C(=C/c3ccc(Cl)cc3)CC(C)CC2C1c1ccc(Cl)cc1` (stereo unspecified): the GI50 in assay [1] is 30.9 µM; in assay [2], 13 µM; in assay [3], 11.6 µM; in assay [4], 17.1 µM; in assay [5] it was 44.3 µM; in assay [6], 23.7 µM. Also, the GI50 is 23.7 µM in assay [7], 19.9 µM in [8], 25.2 µM in assay [9] and 20 µM in assay [10]. Besides, the TGI in assay [1] is > 100 µM; in assay [2] it was 28.7 µM; in assay [3] it was 39.3 µM; in [4], 56.8 µM; in assay [5], > 100 µM; in assay [6], 53.8 µM. Besides, the TGI in assay [7] is > 100 µM; in assay [8], 56.1 µM; in assay [9] it was > 100 µM; in assay [10], 53.9 µM.

For the molecule `Cn1c(NCC(O)CN2CCCC2)cc(=O)n(C)c1=O` (stereo unspecified), the GI50 in [1], in [2], in assay [3], in assay [4], in [5] and in assay [6] was > 100 µM in each case. Moreover, the GI50 in assay [7], in assay [8], in assay [9] and in assay [10] was > 100 µM in each case. Also, the TGI in [1], in [2], in assay [3], in assay [4], in assay [5] and in assay [6] was > 100 µM each time. In addition, the TGI in assay [7], in [8], in assay [9] and in [10] was > 100 µM in each case.

On to `CC(=O)Nc1ccc(COC(O)CN2CCCCC2)cc1[N+](=O)[O-]` (stereo unspecified), for which the TGI in assay [1], in assay [2], in [3], in [4], in [5] and in assay [6] was > 100 µM each time. The TGI in [7], in assay [8], in [9] and in [10] was > 100 µM each time.

For `CC(=O)OC1CC2C3CCC4C[C@@H](NC(=O)C=C(C)C)CC[C@]4(C)C3CC[C@]2(C)[C@H]1C(C)N(C)C` (stereo partly specified), the GI50 in assay [1] is 2.17 µM; in assay [2] it was 1.71 µM; in [3] it was 1.32 µM; in [4], 2.78 µM; in assay [5], 3.71 µM; in assay [6], 1.75 µM. Further, the GI50 was 3.63 µM in [7], 2.18 µM in [8], 2.55 µM in assay [9] and 1.99 µM in assay [10]. Moreover, the TGI worked out at 4.82 µM in assay [1]; 4.51 µM in assay [2]; 4.18 µM in [3]; 11.4 µM in assay [4]; 13.2 µM in [5]; 3.39 µM in [6]. For the same molecule, the TGI was 9.06 µM in assay [7], 4.5 µM in assay [8], 8.56 µM in [9] and 7.56 µM in assay [10].

For `O=C1c2cccc(NCCN=Cc3ccccc3O)c2C(=O)c2c(NCCN=Cc3ccccc3O)cccc21`, the GI50 in [1] is 1.16 µM; in assay [2], 1.11 µM; in assay [3], 0.353 µM; in assay [4], 0.278 µM; in [5], 0.953 µM; in assay [6], 1.54 µM. Further, the GI50 in [7] was 0.776 µM; in [8], 1.44 µM; in assay [9], 1.01 µM; in assay [10], 0.514 µM. Further, the TGI in assay [1] worked out at 2.87 µM; in assay [2], 2.6 µM; in assay [3], 1.56 µM; in assay [4], 1.38 µM; in [5] it was 4.82 µM; in assay [6], 3.37 µM. Besides, the TGI was found to be 3.54 µM in [7], 4.3 µM in assay [8], 3.2 µM in assay [9] and 2.09 µM in assay [10].

With `O=c1ssc(Cl)c1Cl`, the TGI in [1] is > 10 µM; in assay [2], > 10 µM; in [3] it was 4.9 µM; in assay [4], > 6.78 µM; in [5], > 10 µM; in assay [6], > 10 µM. Moreover, the TGI in assay [7], in assay [8], in assay [9] and in assay [10] was > 10 µM throughout.

Turning to `COc1cc(/C=C/C(=O)N2CCN(C(=O)c3cc(OC)c(OC)c(OC)c3)CC2)ccc1OCCCOc1cc2c(cc1OC)C(=O)N1CCC[C@H]1C=N2`, the GI50 in assay [1] was 0.178 µM; in [2], 0.205 µM; in [3], 0.218 µM; in assay [4] it was 0.213 µM; in assay [5], 1.54 µM; in [6], 0.212 µM. Also, the GI50 was 0.362 µM in assay [7], 0.313 µM in [8], 0.296 µM in [9] and 0.219 µM in [10]. In addition, the TGI in assay [1] turned out to be 0.343 µM; in assay [2], 0.51 µM; in assay [3] it was 1.59 µM; in assay [4] it was 3.25 µM; in assay [5], 6.08 µM; in assay [6] it was 0.417 µM. Moreover, the TGI was > 40.3 µM in [7], 2.04 µM in [8], 0.974 µM in assay [9] and 0.504 µM in assay [10].

For `Cc1cc(C(C)(C)C)cc(CNC2CCCCC2)c1O`, the TGI was 43.4 µM in assay [1]; 30.3 µM in assay [2]; 92.4 µM in assay [3]; 25.2 µM in [4]; 35.7 µM in [5]; 30.9 µM in [6]. Also, the TGI in assay [7] is 31.9 µM; in [8], 28.4 µM; in assay [9] it was 29.2 µM; in [10] it was 34.2 µM.

Turning to `COc1ccc(/C=C/C(=O)c2ccc(OC)c(OC)c2)cc1O`, the GI50 is 5.22 µM in assay [1]; 4.84 µM in [2]; 4.32 µM in assay [3]; 3.42 µM in [4]; 18.1 µM in assay [5]; 12.9 µM in [6]. Also, the GI50 in [7] was 6.42 µM; in assay [8], 13.8 µM; in assay [9] it was 9.91 µM; in assay [10], 2.56 µM. Besides, the TGI in assay [1] is 23.5 µM; in assay [2], 20.3 µM; in assay [3], 26.1 µM; in assay [4], 12.4 µM; in [5], > 100 µM; in [6], 27.4 µM. In addition, the TGI stood at 20.8 µM in [7], 26.9 µM in [8], 30.4 µM in [9] and 6.31 µM in assay [10].

Take `CN(C)c1ccc(/C=C/C2=[N+](C)c3ccccc3C2(C)C)cc1`: the GI50 is 0.467 µM in assay [1]; 8.86 µM in assay [2]; 0.305 µM in assay [3]; 0.587 µM in assay [4]; 4.69 µM in assay [5]; 1.03 µM in assay [6]. The GI50 is 0.691 µM in assay [7], 0.658 µM in assay [8], 0.286 µM in assay [9] and 0.301 µM in [10]. For the same molecule, the TGI in assay [1] is 11.7 µM; in assay [2] it was 74.9 µM; in assay [3], 2.24 µM; in assay [4] it was 10.1 µM; in [5] it was > 100 µM; in assay [6], 18 µM. In addition, the TGI in assay [7] turned out to be 18.4 µM; in assay [8], 6.17 µM; in assay [9], 11.9 µM; in [10], 12.3 µM.

For `COc1ccc(C2C(C)C(=O)C(C)C(c3ccc(OC)cc3)N2N=O)cc1` (stereo unspecified), the TGI is 343 µM in assay [1]; > 40.9 µM and 424 µM in assay [2]; > 1000 µM in assay [3]; > 750 µM in assay [4]; 750 µM and 577 µM in [5]; > 1000 µM in [6]. Moreover, the TGI is 750 µM and > 873 µM in [7]; > 1000 µM in [8]; > 750 µM and 713 µM in assay [9]; > 1000 µM in [10]. Also, the GI50 in [4] was > 750 µM; in assay [5], 50.1 µM; in assay [6] it was > 750 µM; in assay [7] it was > 71 µM and 73.1 µM; in assay [9], > 750 µM; in [10], > 750 µM.

The values above are taken from PubChem BioAssay (NCI).
